{"source": "patent US20130095059A1", "about": "“INHALED NO DONOR KMUPS DERIVATIVE PREVENTING ALLERGIC PULMONARY VASCULAR AND BRONCHIAL INFLAMMATION VIA SUPPRESSED CYTOKINES, INOS AND INFLAMMATORY CELL COUNTS IN ASTHMA MODEL” (priority 2007, published 2013)", "key": {"ERK1/2": {"system": "ERK1/2", "assay": "5-HT-induced ERK1/2 phosphorylation in PASMCs", "format": "cell-based, Wistar rats", "settings": "1-100 μM, 24 h pre-incubation", "description": "(§1) PASMCs were stimulated with 5-HT or not, as indicated. Cells were treated with KMUP-1 for 24 h before 5-HT stimulation. Whole lysates were collected and resolved by SDS-PAGE as previously described. Primary antibodies were anti-β-actin at: 1:10,000 dilution and anti-RhoA, anti-ROCK, antiphospho-ERK1/2, anti-phospho-AKT, anti-ERK1/2, anti-AKT, anti-5HTT, anti-5-HT2B and anti-eNOS at 1:1000. All blots were incubated with antibodies at 4° C. overnight. After being washed, the appropriate secondary antibodies were added at a dilution of 1:1000 for 1 h at room temperature. After extensive washing, blots were developed with a Super Signal enhanced chemiluminescence kit (Biorad, CA, USA) and visualized on Kodak AR film.\n(§2) The expression of RhoA/ROCK and phosphorylation of ERK1/2 and AKT kinase in PASMCs were assessed by incubating the PASMCs with 5-HT (10 μM) for 15 min (peak time for RhoA/ROCK, ERK1/2 and AKT phosphorylation) and 5-HTT for 10 min (peak time for 5-HTT) after KMUP-1 (1-100 μM) was added to the culture of PASMCs for 24 h."}, "iNOS": {"system": "iNOS", "assay": "Ovalbumine model, iNOS expression", "format": "in vivo, BALB/c mice", "settings": "28-day experiment; nebulization"}, "5-HT": {"system": "5-HT", "assay": "Plasma 5-HT levels in MCT-treated rats (Serotonin EIA)", "format": "in vivo, Wistar rats", "settings": "MCT-PAH rats, non-treated MCT-PAH 4.2±0.7", "description": "(§3) The experiments were performed in adult male Wistar rats (300 to 350 g) in accordance with institutional guidelines after approval by the ethical review committee. PAH development and pulmonary expression of 5-HTT were examined in rats after 60 mg/kg single injection (i.p.) of monocrotaline (MCT). To assess the potential preventive effect of KMUP-1 on MCT-induced PAH and associated proliferation, we assigned rats at random to 2 groups of 8 animals which received KMUP-1 at 5 mg/kg/day p.o or 1 mg/kg/day i.p. All treatments were given once a day for 3 weeks after a single MCT injection (60 mg/kg i.p.) (Abe et al., 2004). On day 21, rats were anesthetized and pulmonary artery blood pressure (MPAP) was recorded as previously described. Lung tissues were dissected for Western blotting and immunohistochemistry.\nAfter MCT-treatment, rats acquired severe PAH and received sodium pentobarbital (40 mg/kg, i.p.) at day 21 for surgical anesthesia and measurement of MPAP (Chung et al., 2010). Blood samples (1.0 mL) were obtained from the heart. Blood was transferred to plastic tubes that included EDTA and was centrifuged at 100 g for 20 min. The plasma was transferred to tubes and stored at −80° C. until analysis. Plasma 5-HT levels were determined using commercially available Serotonin EIA (IBL, Minneapolis, USA). […] Results were read from a standard curve. […]"}, "[1]": {"assay": "MCT-induced chronic PAH, mean pulmonary arterial pressure", "format": "in vivo, Wistar rats", "settings": "5 mg/kg/day p.o. and 1 mg/kg/day i.p. for 21 days", "description": "as §3"}, "PASMCs": {"system": "PASMCs", "assay": "PASMCs [Ca2+]i measurement (Fura-2/AM)", "format": "cell-based, Wistar rats", "description": "Wistar rats were anesthetized with an overdose of sodium pentobarbital (60 mg/kg) and the skin was sterilized with 75% alcohol. The chest was opened and the heart and lung were removed. The organs were rinsed several times in PBS. The pulmonary artery were segregated in a sterile manner. The outer sphere was peeled and the microtubule was snipped visually, and endothecia were shaved lightly 2-3 times in order to remove endothelial cells. The tunica media was prepared into scraps (1 mm^3) in DMEM (Dulbecco's modified Eagle's medium). PASMCs were cultured in DMEM containing 10% fetal bovine serum (5% CO2 at 37° C.). The culture medium was changed every 3 days and cells were subcultured until confluence. Primary cultures of 2-4 passages were used in the experiments. Cells were examined by immunofluorescence staining of α-actin to confirm the purity of PASMCs.\nThe measurement of [Ca^2+]i in PASMCs was performed using a spectrofluorophotometer as previously reported. PASMCs, cultured for 2-4 passages and re-suspended by trypsin, were loaded with Fura-2/AM for the measurement of [Ca^2+]i changes in cells within the cuvette by spectrofluorophotometer (Shimadzu, RF-5301PC, Shimadzu, Japan). KMUP-1 was applied 5 min before application of 5-HT (10 μM)."}, "eNOS": {"system": "eNOS", "assay": "Ovalbumine model, eNOS immunostaining in lung sections", "parameters": "species or system BALB/c mice", "settings": "mouse, in vivo", "description": "In this long-term experiment, 6-8 week old BALB/c female mice were sensitized on days 1 and 8 by intra-peritoneal injection (i.p.) of ovalbumine (10 μg) (Sigma-Aldrich, Schnelldorf, Germany) adsorbed to 2 mg aluminum hydroxide (AlumInject; Perbio, Erembodegem, Belgium). Mice were divided into three groups. In Group 1, a control group was only exposed to saline nebulization by aerosol. The other 2 groups were subjected to ovalbumine (1%) nebulization. Before each challenge with ovalbumine, mice were either exposed to saline nebulization (Group 2) or KMUP-1 nebulization (5 mM) for 30 min by aerosol (Group 3).\nImmunohistochemical analysis of eNOS enhancement by KMUP-1 was performed as follows. The lungs were perfused with saline followed by 10% formalin and then placed in 10% formalin for paraffin embedding. The lung tissues were cut into […] sections onto slides, dewaxed in 100% xylene, and then re-hydrated in graded alcohol solutions. Throughout the procedures, slides were washed as appropriate in PBS. Antigen retrieval was performed by microwave treatment for eNOS immunostaining. Sections were treated with 3% H2O2 (10 min) to inhibit endogenous peroxidases and incubated with normal serum (60 min) to reduce nonspecific binding of secondary antibodies. Sections were then incubated at 4° C. overnight with eNOS antibodies. […]"}, "5-HTT": {"system": "5-HTT", "assay": "5-HT-induced 5-HTT expression in PASMCs (Western blotting)", "format": "cell-based, Wistar rats", "description": "as §1, §2"}}}
{"smiles": "Cn1c(=O)c2c(ncn2CCN2CCN(c3ccccc3Cl)CC2)n(C)c1=O", "note": "[KMUP-1, 7-[2-[4-(2-chlorophenyl)piperazinyl]ethyl]-1,3-dimethylxanthine]", "values": [{"measurement": "5-HT-stimulated ERK1/2 phosphorylation", "setting": "ERK1/2", "result": "concentration-dependently reduced"}, {"measurement": "increased iNOS expression by ovalbumine sensitization", "setting": "iNOS", "result": "significantly reduced"}, {"measurement": "plasma concentration of 5-HT", "setting": "5-HT; 1 mg/kg i.p.", "result": "3.2 ± 0.6", "unit": "ng/mL"}, {"measurement": "plasma concentration of 5-HT", "setting": "5-HT; 5 mg/kg p.o.", "result": "3.2 ± 0.5", "unit": "ng/mL"}, {"measurement": "MCT-induced increases in mean pulmonary arterial pressure (MPAP)", "setting": "[1]", "result": "significantly reduced"}, {"measurement": "inhibition of sustained [Ca^2+]i response to 5-HT", "setting": "PASMCs; 10 μM", "result": 65, "unit": "%"}, {"measurement": "5-HT-induced elevation of [Ca^2+]i", "setting": "PASMCs; 0.1-100 μM, 5-HT 10 μM", "result": "concentration-dependently inhibited"}, {"measurement": "ovalbumine-decreased vascular eNOS-immunostaining in lung sections", "setting": "eNOS", "result": "prevented this decrease"}, {"measurement": "5-HT-induced expression of 5-HTT", "setting": "5-HTT; 10 μM", "result": "inhibited"}, {"measurement": "5-HT-induced expression of 5-HTT", "setting": "5-HTT; 1-100 μM, 24 h, then 5-HT 10 min", "result": "dose-dependently inhibited"}]}
